Measurements as given in patent publication US11324746B2, “Use of anagrelide for treating cancer” (Arovella Therapeutics Limited, priority 2014, dated 2022).
In brackets after ≈: the same amount, converted by molar mass. Several values for one entry are separate records, joined by “and”; a condition that tells them apart may be missing. Identical values can stand only once. Like-named read-outs stand apart in the source and are kept apart here.

What was measured:
[1] = cited from earlier work; for peak plasma levels: after a typical 1 mg clinical dose
PDE III = details: cited from earlier work; for IC50 inhibition of PDE III / IC50: in vitro; for IC50: read-out: IC50 inhibition of PDE III
PF4 = details: ET patients; HU 1.25 g/day, IFN-α 1.5×10^6 units/day, anagrelide 1.5 mg/day; cited from earlier work
VEGF = details: ET patients; HU 1.25 g/day, IFN-α 1.5×10^6 units/day, anagrelide 1.5 mg/day; cited from earlier work
COV362 cells = test: Transmigration assay of COV362 cells towards MK cultures (modified Boyden chamber); type: cell-based, human
Protocol: Transmigration assay—Transmigration of human ovarian cancer cells, COV362 cells (COVs), was examined in a well established model of cancer cell migration (Hart et al 2005) and Kramer et al 2013) which employed the modified Boyden chamber described above but using inserts with a larger 8μm pore PET membrane. […] In this case pre-expanded haematopoietic cells were grown for 7 days in MK medium in the wells of the companion plate prior to placement of the inserts. Inserts were then positioned inside these MK-containing wells or in parallel wells filled with and equivalent volume of MK medium alone. A suspension of 0.35 mL COVs cells made in plasma-free MK medium at a density of 2.86×10^5cells/ml was then loaded onto the inserts and allowed to trans-migrate through the PET membrane for up to 24 h at 37° C. in a tissue culture incubator. At various time points the transmigration assay was terminated by removing the insert from the well of the companion plate and aspirating its contents. After washing the inserts with phosphate-buffered saline (PBS) non-migrating cells attached to the upper side of the PET membrane were scraped off with cotton swabs soaked in PBS. […] Bright field digital photomicrographs were taken in five random fields at 100× magnification and the average number of cells per field was determined by manual counting.

[2] = up to concentration of 1 μM; cited from earlier work
megakaryocytes = details: cited from earlier work
[3] = Aqueous solubility of anagrelide; type: physicochemical
[4] = system: megakaryocytes (MKs) from human umbilical cord blood-derived CD34+ haematopoietic cells; test: Co-culture of COV362 cells and developing megakaryocytes (MK expansion, CD61 flow cytometry); type: cell-based; details: anagrelide 1 μM
Protocol: Cells and drug treatment—Megakaryocytes (MKs) were generated ex-vivo essentially as previously described (Ahluwalia M et al 2010). In brief, to promote terminal megakaryocytic differentiation pre-expanded human umbilical cord blood-derived CD34^+ haematopoietic cells were cultured for 7 days in Stemspan™ SFEM II medium (Stem Cell Technologies) supplemented with 1% human umbilical cord blood plasma and 40 ng/ml thrombopoietin (TPO) unless otherwise indicated (MK medium). […]
The human ovarian cancer cell line COV362 was grown in Iscove's modified Dulbecco's medium (IMDM) supplemented with 2 mM glutamine and 10% foetal bovine serum (FBS). Cell cultures were maintained at 37° C. in a humidified incubator under 5% CO2/95% air.
Co-culture experiments—Co-culture of COV362 cells (COVs) and developing MKs was carried out in a modified Boyden Chamber (BD Falcon, BD Biosciences, Oxford, UK) consisting of a cup-shaped cell culture insert resting inside the well of a 24-well companion plate, with the bottom of the insert made of a permeable microporous polyethylene terephthalate (PET) membrane having a pore size of 0.4 μm.
In experiments examining the effects of COVs on MK development, COVs were seeded in the companion plate at various cells densities and grown for 4 days prior to mounting the inserts. Then, the medium in the companion plate was removed and replaced with fresh MK medium. Immediately thereafter the pre-expanded haematopoietic cells were seeded in the insert. After seven days of co-culture the cells growing in the inserts were harvested for analysis of MK development.
Analysis of megakaryocyte development—Cell density was determined using a Casy TT Cell counter (Innovatis, Germany) set with a lower cut-off limit of ˜7.5 μm. MK-specific antigen expression was monitored by flow cytometry using a fluorescein isothiocyanate-conjugated anti-CD61 antibody (clone Y2/51, Dako, Ely, UK) as previously described (Wang G et al 2005). The number of MKs was calculated by multiplying the total number of cells in the culture by the fraction of CD61 positive cells.

[5] = cited from earlier work
cancer cells = details: mice; cited from earlier work
[6] = cited from earlier work; remark: listed apart in the source
[7] = cited from earlier work; remark: listed apart in the source
[8] = system: various cancer cell lines; details: in vitro; WO2014/183673; read-out: IC50 apoptosis in cancer cell lines; cited from earlier work
[9] = cited from earlier work; remark: listed apart in the source
[10] = human, in vivo; cited from earlier work
ovarian cancer = details: mouse models of ovarian cancer; cited from earlier work

O=C1NC2=Nc3ccc(Cl)c(Cl)c3CN2C1O (stereo not drawn) [3-hydroxy anagrelide]
peak plasma levels ([1]; listed as metabolite): 29 nM and ~8 ng/mL | plasma concentrations of metabolite relative to parent drug ([1]; clinical practice, Martinez-Selles et al, 2013): 2-3 fold | PDEIII inhibitory potency relative to anagrelide (PDE III; Wang et al, 2005): ~40 fold | cardiostimulant potency relative to the parent drug (PDE III): 40 fold | IC50 inhibition of PDE III (PDE III): 0.2 ng/mL | IC50 (PDE III): 0.7 nM

NC(=O)NO [HU, hydroxyurea]
PF4 levels after treatment (PF4): Neither HU nor IFα brought PF4 and VEGF down | VEGF levels after treatment (VEGF): Neither HU nor IFα brought PF4 and VEGF down

O=C1CN2Cc3c(ccc(Cl)c3Cl)N=C2N1 [anagrelide]
attractant properties for COVs of MK cultures grown with drug (COV362 cells; anagrelide 1 μM, overnight incubation (FIG. 3)): no attractant properties | attractant properties for COVs of MKs grown with drug (COV362 cells; clinically relevant concentrations, 16 h (FIG. 4)): loss of attractant properties | apoptopic effects [2]: no apoptopic effects | peak plasma levels [1]: 16 nM and ~4 ng/mL | in vitro anti-megakaryocytic IC50 (megakaryocytes): 7 ng/mL | IC50 (megakaryocytes; read-out: in vitro anti-megakaryocytic IC50): 26 nM | FDA Biopharmaceutics Classification System class [3]: low solubility/high permeability | inhibition at 1 µM ([4]; Homo sapiens, 168 h, absence of COVs, 7 days, read-out: inhibition of thrombopoietin driven MK expansion): ~50% | stimulatory effects of COVs on MK expansion ([4]; COVs seeded at 1000cells/mL): completely abolished | expected increase in MK expansion with COVs ([4]; COVs seeded at 3000cells/mL): more than halved | aqueous solubility ([5]; between pH 4-8): ~1.0 µg/mL (≈ 3.9 µM) | aqueous solubility ([5]; pH1): 236 µg/mL (≈ 922 µM) | water solubility ([5]; pH7): ~1.0 µg/mL (≈ 3.9 µM) | water solubility ([5]; pH of ~3): 250 µg/mL (≈ 976 µM) | PF4 levels after treatment (PF4): reduced the PF4 and VEGF levels to normal | circulation time of cancer cells (cancer cells): increase in circulation time of cancer cells | IC50 inhibition of PDE III (PDE III): 8.2 ng/mL | IC50 (PDE III): 32 nM | patients discontinuing drug treatment due to cardiovascular side-effects ([6]; Birgegard et al, 2004): ~25% | patients with idiopathic cardiomyopathy ([6]; of 434 patients with essential thrombocythaemia and polycythemia vera, Jurgens et al 2004): 11 | oral bioavailability [7]: less than 50% | VEGF levels after treatment (VEGF): reduced the PF4 and VEGF levels to normal | IC50 [8]: 100 nM

Cc1ncc2n1-c1ccc(Cl)cc1C(c1ccccc1F)=NC2 [midazolam]
bioavailablity ([9]; given orally): ~30% | bioavailablity ([9]; intranasal spray): 87%

siltuximab: IL-6 antibody
upper respiratory infections, share of patients [10]: > 20% | platelet count (ovarian cancer): significantly reduced | tumour growth (ovarian cancer): significantly reduced
